Patent US20100137449A1, “SUBSTITUTED 1,3-CYCLOPENTADIONE MULTI-TARGET PROTEIN KINASE MODULATORS OF CANCER, ANGIOGENESIS AND THE INFLAMMATORY PATHWAYS ASSOCIATED THEREWITH” (METAPROTEOMICS, LLC, priority 2007, published 2010)

What was measured:
Assay in all cases: KinaseProfiler Assay
[1] = molecular target: T1, Flt3(D835Y)(h) (Homo sapiens, UniProt P36888, D835Y)
T1 sequence (P36888 27-993 D835Y): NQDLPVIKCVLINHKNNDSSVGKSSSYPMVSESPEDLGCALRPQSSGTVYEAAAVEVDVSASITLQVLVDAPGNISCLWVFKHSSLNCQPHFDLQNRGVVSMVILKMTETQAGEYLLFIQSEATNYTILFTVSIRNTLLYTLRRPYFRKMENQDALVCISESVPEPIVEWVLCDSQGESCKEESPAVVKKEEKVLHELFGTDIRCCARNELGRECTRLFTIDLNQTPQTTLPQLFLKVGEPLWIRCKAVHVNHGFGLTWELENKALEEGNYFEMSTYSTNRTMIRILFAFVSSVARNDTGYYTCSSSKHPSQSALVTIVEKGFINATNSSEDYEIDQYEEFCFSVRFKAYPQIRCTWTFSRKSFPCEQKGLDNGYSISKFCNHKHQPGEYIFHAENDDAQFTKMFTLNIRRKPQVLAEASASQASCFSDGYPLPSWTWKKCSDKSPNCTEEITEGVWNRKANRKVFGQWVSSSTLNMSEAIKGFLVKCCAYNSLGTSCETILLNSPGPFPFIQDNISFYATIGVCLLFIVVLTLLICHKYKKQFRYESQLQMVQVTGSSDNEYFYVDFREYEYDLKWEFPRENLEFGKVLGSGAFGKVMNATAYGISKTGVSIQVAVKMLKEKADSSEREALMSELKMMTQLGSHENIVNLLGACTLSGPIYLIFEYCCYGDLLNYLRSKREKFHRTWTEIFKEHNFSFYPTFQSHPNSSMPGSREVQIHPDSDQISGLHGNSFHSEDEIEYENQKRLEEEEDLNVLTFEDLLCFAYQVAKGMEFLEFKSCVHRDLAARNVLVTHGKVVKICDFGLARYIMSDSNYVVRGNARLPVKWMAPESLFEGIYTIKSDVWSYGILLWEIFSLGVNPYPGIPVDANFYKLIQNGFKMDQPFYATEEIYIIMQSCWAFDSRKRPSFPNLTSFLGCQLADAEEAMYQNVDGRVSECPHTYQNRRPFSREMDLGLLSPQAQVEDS

[2] = molecular target: T2, EphB4(h) (Homo sapiens, UniProt P54760)
T2 sequence (P54760 16-987): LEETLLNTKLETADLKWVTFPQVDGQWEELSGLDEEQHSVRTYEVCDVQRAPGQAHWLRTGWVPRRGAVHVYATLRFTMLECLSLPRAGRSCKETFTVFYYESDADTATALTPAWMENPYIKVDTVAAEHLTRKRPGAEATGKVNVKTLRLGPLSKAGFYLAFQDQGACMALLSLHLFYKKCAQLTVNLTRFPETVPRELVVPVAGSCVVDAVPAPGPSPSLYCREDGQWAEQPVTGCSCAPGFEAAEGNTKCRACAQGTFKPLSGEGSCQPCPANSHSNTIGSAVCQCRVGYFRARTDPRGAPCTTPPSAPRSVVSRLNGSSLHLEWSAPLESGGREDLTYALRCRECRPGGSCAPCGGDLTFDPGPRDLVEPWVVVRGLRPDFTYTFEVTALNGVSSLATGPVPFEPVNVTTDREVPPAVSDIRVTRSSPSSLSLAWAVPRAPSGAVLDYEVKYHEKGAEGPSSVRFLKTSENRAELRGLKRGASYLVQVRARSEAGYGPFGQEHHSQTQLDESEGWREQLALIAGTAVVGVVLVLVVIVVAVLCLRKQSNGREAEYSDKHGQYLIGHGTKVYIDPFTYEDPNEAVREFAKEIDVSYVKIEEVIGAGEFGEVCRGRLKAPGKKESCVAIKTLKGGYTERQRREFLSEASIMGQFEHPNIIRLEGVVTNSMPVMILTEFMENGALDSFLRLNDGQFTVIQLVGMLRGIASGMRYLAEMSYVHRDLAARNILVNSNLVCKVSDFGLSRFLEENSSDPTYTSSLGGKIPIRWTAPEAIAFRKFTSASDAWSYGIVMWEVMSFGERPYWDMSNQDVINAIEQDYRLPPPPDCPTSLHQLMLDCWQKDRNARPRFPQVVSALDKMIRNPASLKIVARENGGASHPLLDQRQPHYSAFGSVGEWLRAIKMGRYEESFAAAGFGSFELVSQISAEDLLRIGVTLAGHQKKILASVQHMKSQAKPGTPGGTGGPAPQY

[3] = molecular target: Abl(m) (Mus musculus, UniProt P00520)
Chain of Abl(m) (P00520 whole entry): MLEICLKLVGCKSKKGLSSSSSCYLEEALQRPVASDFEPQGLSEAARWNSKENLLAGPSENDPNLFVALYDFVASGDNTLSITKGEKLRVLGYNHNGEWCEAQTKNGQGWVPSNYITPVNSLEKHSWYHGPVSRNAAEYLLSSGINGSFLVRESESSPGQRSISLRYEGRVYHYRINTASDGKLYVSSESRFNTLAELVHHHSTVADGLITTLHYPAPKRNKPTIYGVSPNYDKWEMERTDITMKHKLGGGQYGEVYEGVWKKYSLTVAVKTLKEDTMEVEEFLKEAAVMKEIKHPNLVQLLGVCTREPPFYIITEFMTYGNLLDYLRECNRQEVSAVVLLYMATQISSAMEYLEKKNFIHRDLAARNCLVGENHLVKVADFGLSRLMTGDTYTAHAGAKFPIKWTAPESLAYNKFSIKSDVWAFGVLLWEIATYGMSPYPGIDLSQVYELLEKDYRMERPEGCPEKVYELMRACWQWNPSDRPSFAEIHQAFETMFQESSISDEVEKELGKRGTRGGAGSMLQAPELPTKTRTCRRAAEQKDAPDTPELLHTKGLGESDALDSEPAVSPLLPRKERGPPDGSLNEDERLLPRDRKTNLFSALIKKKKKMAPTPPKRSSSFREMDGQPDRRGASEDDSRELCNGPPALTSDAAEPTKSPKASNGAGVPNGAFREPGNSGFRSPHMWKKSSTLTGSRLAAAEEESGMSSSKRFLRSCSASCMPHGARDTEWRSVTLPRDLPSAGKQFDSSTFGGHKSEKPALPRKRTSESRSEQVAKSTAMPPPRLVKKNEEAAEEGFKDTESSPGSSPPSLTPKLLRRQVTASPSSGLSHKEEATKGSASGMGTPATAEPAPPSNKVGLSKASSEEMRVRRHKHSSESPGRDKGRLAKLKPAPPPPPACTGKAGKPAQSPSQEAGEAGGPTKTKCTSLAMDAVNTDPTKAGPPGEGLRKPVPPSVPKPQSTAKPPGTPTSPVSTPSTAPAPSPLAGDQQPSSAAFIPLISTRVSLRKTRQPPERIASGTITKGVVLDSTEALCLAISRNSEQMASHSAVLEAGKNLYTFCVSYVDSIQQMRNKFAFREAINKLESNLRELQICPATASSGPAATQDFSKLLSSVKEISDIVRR

[4] = molecular target: T3, PKCε(h) (Homo sapiens, UniProt Q02156)
T3 sequence (Q02156 1-737): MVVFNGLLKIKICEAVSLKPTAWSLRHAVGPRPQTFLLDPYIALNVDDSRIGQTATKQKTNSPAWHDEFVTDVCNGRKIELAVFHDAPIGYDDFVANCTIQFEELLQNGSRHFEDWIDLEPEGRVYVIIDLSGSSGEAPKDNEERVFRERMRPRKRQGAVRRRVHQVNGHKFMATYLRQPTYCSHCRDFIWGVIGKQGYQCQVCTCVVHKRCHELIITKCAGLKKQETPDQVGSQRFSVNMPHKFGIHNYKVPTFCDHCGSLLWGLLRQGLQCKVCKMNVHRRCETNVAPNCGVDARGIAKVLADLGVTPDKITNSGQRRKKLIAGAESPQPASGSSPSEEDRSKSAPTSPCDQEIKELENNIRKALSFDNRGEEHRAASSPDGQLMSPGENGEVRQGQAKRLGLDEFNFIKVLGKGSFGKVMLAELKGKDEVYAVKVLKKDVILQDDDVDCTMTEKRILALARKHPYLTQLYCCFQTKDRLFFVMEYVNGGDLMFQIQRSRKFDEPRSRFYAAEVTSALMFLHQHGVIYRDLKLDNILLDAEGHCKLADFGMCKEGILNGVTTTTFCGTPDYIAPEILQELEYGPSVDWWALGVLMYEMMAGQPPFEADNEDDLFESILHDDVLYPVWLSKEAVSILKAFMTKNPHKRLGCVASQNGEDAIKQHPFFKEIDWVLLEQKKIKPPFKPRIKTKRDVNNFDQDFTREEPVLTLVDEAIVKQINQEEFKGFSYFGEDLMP

CC(C)CCC(=O)[C@]1(O)C(O)=C(C(=O)C(C)C)C(=O)[C@H]1CCC(C)C [TH2, tetrahydroiso-cohumulone]
kinase inhibition ([1]; 1 μg/ml): 108% of control
kinase inhibition ([1]; 5 μg/ml): 116% of control
kinase inhibition ([1]; 25 μg/ml): 102% of control
kinase inhibition ([1]; 50 μg/ml): 105% of control
kinase inhibition ([1]; 100 μg/ml): 98% of control
kinase inhibition ([2]; 1 μg/ml): 106% of control
kinase inhibition ([2]; 5 μg/ml): 112% of control
kinase inhibition ([2]; 25 μg/ml): 116% of control
kinase inhibition ([2]; 50 μg/ml): 109% of control
kinase inhibition ([2]; 100 μg/ml): 98% of control
kinase inhibition ([3]; 1 μg/ml): 98% of control
kinase inhibition ([3]; 5 μg/ml): 91% of control
kinase inhibition ([3]; 25 μg/ml): 69% of control
kinase inhibition ([3]; 50 μg/ml): 32% of control
kinase inhibition ([3]; 100 μg/ml): 48% of control
kinase inhibition ([4]; 1 μg/ml): 105% of control
kinase inhibition ([4]; 5 μg/ml): 102% of control
kinase inhibition ([4]; 25 μg/ml): 98% of control
kinase inhibition ([4]; 50 μg/ml): 102% of control
kinase inhibition ([4]; 100 μg/ml): 90% of control
